Read-outs that look alike come from different tables or passages of the source. Positions of bridges follow the written chain, without caps; N, C: chain ends. Non-standard residues stand in square brackets, D forms with d. Residues, ends and D or L forms follow the SMILES beside them. Pro(trans-4-cHex) = O=C(O)[C@@H]1C[C@@H](C2CCCCC2)CN1; Phe(4-Br) = N[C@@H](Cc1ccc(Br)cc1)C(=O)O; Phe(4-Cl) = N[C@@H](Cc1ccc(Cl)cc1)C(=O)O; Bta = N[C@@H](Cc1csc2ccccc12)C(=O)O; Hyp = O=C(O)[C@@H]1C[C@@H](O)CN1; NMeF = CN[C@@H](Cc1ccccc1)C(=O)O; NMeNle = CCCC[C@H](NC)C(=O)O; NMeA = CN[C@@H](C)C(=O)O; Orn = NCCC[C@H](N)C(=O)O; Dap = NC[C@H](N)C(=O)O; Sar = CNCC(=O)O
Experiments:
Human PD-L1/PD-1 = molecular target: T1, Human PD-L1/PD-1 (Homo sapiens, UniProt Q9NZQ7); test: HTRF PD-1-Ig/PD-L1-His binding assay (human PD-L1)
T1 construct: made in house; host or cells: HEK293T
T1 sequence (Q9NZQ7 with tags, fused parts or gaps): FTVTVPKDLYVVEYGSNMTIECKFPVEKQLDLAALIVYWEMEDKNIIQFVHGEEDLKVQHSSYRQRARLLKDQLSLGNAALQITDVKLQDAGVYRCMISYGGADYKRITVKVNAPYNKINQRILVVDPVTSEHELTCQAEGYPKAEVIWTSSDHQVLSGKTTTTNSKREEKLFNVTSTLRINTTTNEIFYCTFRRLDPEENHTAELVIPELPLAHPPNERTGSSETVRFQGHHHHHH
In short: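 Ig- and His-fused extracellular PD-1/PD-L1 binding in BSA/Tween-20 dPBS. HTRF with Eu anti-Ig (1 nM final) and APC anti-His (20 nM final).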

[1] = molecular target: T2, LK35.2-hPD-L1 cells / PE-labeled PD-1-Ig (Homo sapiens, UniProt Q9NZQ7); test: LK35.2-hPD-L1 cell binding high-content screening assay; assay type: cell-based
T2 construct: expressed in transfected cells; host or cells: LK35.2 mouse B cell line
T2 sequence (Q9NZQ7 19-290): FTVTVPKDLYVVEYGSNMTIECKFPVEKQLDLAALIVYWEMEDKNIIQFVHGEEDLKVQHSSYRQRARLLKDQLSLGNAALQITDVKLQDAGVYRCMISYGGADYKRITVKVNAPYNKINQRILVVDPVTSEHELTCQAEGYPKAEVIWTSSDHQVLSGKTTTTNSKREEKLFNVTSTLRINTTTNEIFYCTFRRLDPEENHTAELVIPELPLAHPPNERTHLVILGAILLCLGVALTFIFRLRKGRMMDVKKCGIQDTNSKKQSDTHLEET
In short: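 Readout: high-content imaging of PE-PD-1-Ig bound to LK35.2-hPD-L1 cells. Cells plated overnight (RPMI/10% FCS); compound + 1 nM PE-PD-1-Ig, 1 h, 37 °C; 3× dPBS wash before imaging.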

[2] = cluster symbol, read-out: HTRF IC50 cluster
[3] = cell binding assay, cell line not given, cluster symbol, read-out: CBA IC50 cluster
[4] = cluster symbol, cell line of CBA not given (LK35.2-hPD-L1 or 293T-hPD-L1), read-out: CBA IC50 cluster

For `CCCC[C@H]1C(=O)N(C)[C@@H](CCCC)C(=O)N[C@@H](CC(C)C)C(=O)N[C@H](C(=O)NCC(N)=O)CSCC(=O)N[C@@H](Cc2ccccc2)C(=O)N(C)[C@@H](C)C(=O)N[C@@H](CC(N)=O)C(=O)N2CCC[C@H]2C(=O)N[C@@H](Cc2cnc[nH]2)C(=O)N[C@@H](CC(C)C)C(=O)N(C)CC(=O)N[C@@H](Cc2c[nH]c3ccccc23)C(=O)N[C@@H](CO)C(=O)N[C@@H](Cc2c[nH]c3ccccc23)C(=O)N1C` [Example 5017] ({CH2CO}-F[NMeA]NPHL[Sar]WSW[NMeNle][NMeNle]LCG-NH2; thioether N-14), the IC50 (Human PD-L1/PD-1; value given instead of cluster, read-out: HTRF IC50 value) was 11.3 nM and the IC50 ([1]; cell binding assay, cell line not given, value given instead of cluster, read-out: CBA IC50 value) was 12.9 nM.
For `CCCC[C@H]1C(=O)N(C)[C@@H](CCCC)C(=O)N[C@@H](CCCNC(=N)N)C(=O)N[C@H](C(=O)NCC(N)=O)CSCC(=O)N[C@@H](Cc2ccc(O)cc2)C(=O)N(C)[C@@H](C)C(=O)N[C@@H](CCCN)C(=O)N2CCC[C@H]2C(=O)N[C@@H](Cc2c[nH]cn2)C(=O)N[C@@H](CCC(=O)O)C(=O)N2C[C@H](O)C[C@H]2C(=O)N[C@@H](Cc2c[nH]c3ccccc23)C(=O)N[C@@H](CO)C(=O)N[C@@H](Cc2c[nH]c3ccccc23)C(=O)N1C` [Example 5113] ({CH2CO}-Y[NMeA][Orn]PHE[Hyp]WSW[NMeNle][NMeNle]RCG-NH2; thioether N-14), the IC50 (Human PD-L1/PD-1; [2]) was 0.385 to 6.74 nM and the IC50 [1, 3] was 0.158 to 4.71 nM.
Work on `CCCC[C@H]1C(=O)N(C)CC(=O)N[C@@H](CC(=O)O)C(=O)N[C@@H](C(C)C)C(=O)N(C)[C@@H](Cc2ccccc2)C(=O)N[C@@H](Cc2ccc(O)cc2)C(=O)N(C)CC(=O)N[C@@H](Cc2csc3ccccc23)C(=O)N[C@@H](Cc2ccc(O)cc2)C(=O)N[C@@H](CC(C)C)C(=O)N[C@H](C(=O)NCC(N)=O)CSCC(=O)N[C@@H](Cc2ccc(Cl)cc2)C(=O)N(C)[C@@H](Cc2ccccc2)C(=O)N1C` [Example 3115] ({CH2CO}-[Phe(4-Cl)][NMeF][NMeNle][Sar]DV[NMeF]Y[Sar][Bta]YLCG-NH2; thioether N-13) yielded an IC50 (Human PD-L1/PD-1; [2]) of 6.76 to 30.3 nM and an IC50 [1, 4] of 4.78 to 72.9 nM.
`CCCC[C@H]1C(=O)N(C)[C@@H](CCCC)C(=O)N[C@@H](CO)C(=O)N[C@H](C(=O)NCC(N)=O)CSCC(=O)N[C@@H](Cc2ccc(O)cc2)C(=O)N(C)[C@@H](C)C(=O)N[C@@H](CO)C(=O)N2CCC[C@H]2C(=O)N[C@@H](CO)C(=O)N[C@@H](CC(C)C)C(=O)N2C[C@H](O)C[C@H]2C(=O)N[C@@H](Cc2c[nH]c3ccccc23)C(=O)N[C@@H](CO)C(=O)N[C@@H](Cc2c[nH]c3ccccc23)C(=O)N1C` [Example 5116] ({CH2CO}-Y[NMeA]SPSL[Hyp]WSW[NMeNle][NMeNle]SCG-NH2; thioether N-14) gave an IC50 (Human PD-L1/PD-1; [2]) of 0.385 to 6.74 nM and an IC50 [1, 3] of 4.78 to 72.9 nM.
`CCCC[C@H]1C(=O)N[C@@H](C)C(=O)NC(C(=O)NCC(N)=O)CSCC(=O)N[C@@H](Cc2ccc(O)cc2)C(=O)N(C)[C@@H](C)C(=O)N[C@@H](CC(N)=O)C(=O)N2CCC[C@H]2C(=O)N[C@@H](CN)C(=O)N[C@@H](CC(C)C)C(=O)N2C[C@H](O)C[C@H]2C(=O)N[C@@H](Cc2c[nH]c3ccccc23)C(=O)N[C@@H](CO)C(=O)N[C@@H](Cc2c[nH]c3ccccc23)C(=O)N(C)[C@@H](CCSC)C(=O)N1C` (stereo partly shown) [Example 9095] was tested, and the IC50 (Human PD-L1/PD-1; [2]) was 0.385 to 6.74 nM and the IC50 [1, 3] was 4.78 to 72.9 nM.
For `CCCC[C@H]1C(=O)N(C)[C@@H](CCCC)C(=O)N[C@@H](CCCN)C(=O)N[C@H](C(=O)NCC(N)=O)CSCC(=O)N[C@@H](Cc2ccc(O)cc2)C(=O)N2CC[C@H]2C(=O)N[C@@H](CC(N)=O)C(=O)N2CCC[C@H]2C(=O)N[C@@H](Cc2cnc[nH]2)C(=O)N[C@@H](CC(C)C)C(=O)N2C[C@H](O)C[C@H]2C(=O)N[C@@H](Cc2c[nH]c3ccccc23)C(=O)N[C@@H](CO)C(=O)N[C@@H](Cc2c[nH]c3ccccc23)C(=O)N1C` [Example 1176], the IC50 (Human PD-L1/PD-1; [2]) was 6.76 to 30.3 nM and the IC50 [1, 4] was 4.78 to 72.9 nM.
In the case of `CCCC[C@H]1C(=O)N2CCC[C@@H]2C(=O)N[C@@H](CCCNC(=N)N)C(=O)N[C@H](C(=O)NCC(N)=O)CSCC(=O)N[C@@H](Cc2ccc(O)cc2)C(=O)N(C)[C@@H](C)C(=O)N[C@@H](CC(N)=O)C(=O)N2CCC[C@H]2C(=O)N[C@@H](Cc2cnc[nH]2)C(=O)N[C@@H](CC(C)C)C(=O)N2CCC[C@H]2C(=O)N[C@@H](Cc2c[nH]c3ccccc23)C(=O)N[C@@H](CO)C(=O)N[C@@H](Cc2csc3ccccc23)C(=O)N1C` [Example 5004] ({CH2CO}-Y[NMeA]NPHLPWS[Bta][NMeNle][dP]RCG-NH2; thioether N-14), the IC50 (Human PD-L1/PD-1; [2]) is reported as 6.76 to 30.3 nM and the IC50 [1, 3] is reported as 4.78 to 72.9 nM.
For `CCCC[C@H]1C(=O)N(C)[C@@H](CCCC)C(=O)N[C@@H](CCCNC(=N)N)C(=O)N[C@H](C(=O)NCC(N)=O)CSCC(=O)N[C@@H](Cc2ccc(O)cc2)C(=O)N2CCC[C@@H]2C(=O)N[C@@H](CC(N)=O)C(=O)N2CCC[C@H]2C(=O)N[C@@H](Cc2cnc[nH]2)C(=O)N[C@@H](CC(C)C)C(=O)N2CCC[C@H]2C(=O)N[C@@H](Cc2c[nH]c3ccccc23)C(=O)N[C@@H](CO)C(=O)N[C@@H](Cc2c[nH]c3ccccc23)C(=O)N1C` [Example 1137] ({CH2CO}-Y[dP]NPHLPWSW[NMeNle][NMeNle]RCG-NH2; thioether N-14), the IC50 (Human PD-L1/PD-1; [2]) was > 30.5 nM and the IC50 [1, 4] was > 74.3 nM.
Work on `CCCC[C@H]1C(=O)N(C)[C@@H](CCCC)C(=O)N[C@@H](CCC(=O)O)C(=O)N[C@H](C(=O)NCC(N)=O)CSCC(=O)N[C@@H](Cc2ccc(O)cc2)C(=O)N(C)[C@@H](C)C(=O)N[C@@H](CC(=O)O)C(=O)N2CCC[C@H]2C(=O)N[C@@H](Cc2c[nH]cn2)C(=O)N[C@@H](CCCCN)C(=O)N2C[C@H](C3CCCCC3)C[C@H]2C(=O)N[C@@H](Cc2c[nH]c3ccccc23)C(=O)N[C@@H](CCCCN)C(=O)N[C@@H](Cc2c[nH]c3ccccc23)C(=O)N1C` [Example 14008] ({CH2CO}-Y[NMeA]DPHK[Pro(trans-4-cHex)]WKW[NMeNle][NMeNle]ECG-NH2; thioether N-14) yielded an IC50 (Human PD-L1/PD-1; [2]) of 0.385 to 6.74 nM and an IC50 [1, 3] of 0.158 to 4.71 nM.
With `CCCC[C@H]1C(=O)N(C)[C@@H](CCCC)C(=O)N[C@@H](CCCNC(=N)N)C(=O)N[C@H](C(=O)NCC(N)=O)CSCC(=O)N[C@@H](Cc2ccc(O)cc2)C(=O)N(C)[C@@H](C)C(=O)N[C@@H](CC(N)=O)C(=O)N2CCC[C@H]2C(=O)N[C@@H](CN)C(=O)N[C@@H](CC(C)C)C(=O)N2CCC[C@H]2C(=O)N[C@@H](Cc2c[nH]c3ccccc23)C(=O)N[C@@H](CO)C(=O)N[C@@H](Cc2csc3ccccc23)C(=O)N1C` [Example 1084] ({CH2CO}-Y[NMeA]NP[Dap]LPWS[Bta][NMeNle][NMeNle]RCG-NH2; thioether N-14) the IC50 (Human PD-L1/PD-1; [2]) was 0.385 to 6.74 nM and the IC50 [1, 4] was 0.158 to 4.71 nM.
`CCCC[C@H]1C(=O)N(C)CC(=O)N[C@@H](CC(=O)O)C(=O)N[C@@H](C(C)C)C(=O)N(C)[C@@H](Cc2ccccc2)C(=O)N[C@@H](Cc2ccc(O)cc2)C(=O)N(C)CC(=O)N[C@@H](Cc2c[nH]c3ccccc23)C(=O)N[C@@H](Cc2ccc(O)cc2)C(=O)N[C@@H](CC(C)C)C(=O)N[C@H](C(=O)NCC(N)=O)CSCC(=O)N[C@@H](Cc2ccc(Br)cc2)C(=O)N(C)[C@@H](Cc2ccccc2)C(=O)N1C` [Example 3081] ({CH2CO}-[Phe(4-Br)][NMeF][NMeNle][Sar]DV[NMeF]Y[Sar]WYLCG-NH2; thioether N-13) was tested, and the IC50 (Human PD-L1/PD-1; [2]) was > 30.5 nM and the IC50 [1, 4] was 4.78 to 72.9 nM.

Reference: patent publication US9850283B2, “Macrocyclic inhibitors of the PD-1/PD-L1 and CD80(B7-1)/PD-L1 protein/protein interactions” (BRISTOL-MYERS SQUIBB COMPANY, priority 2013, dated 2017)
